Assay results: patent US20260202414A1, “PROTEIN COMPLEXES FOR PROXIMITY-BASED LABELING OF INTRACELLULAR MICROENVIRONMENTS” (THE TRUSTEES OF PRINCETON UNIVERSITY, priority 2022, published 2026)

Tested on: cereblon (CRBN)
Experiment: Proximity labeling study with CRBN-bound iridium complex and diazo-biotin (FIG. 3/4)
Assay type: cell-based
Details: transfected cells expressing CRBN with BCNK, tetrazine iridium complex bound to CRBN, diazo-biotin, irradiation; in the presence of CC-885 (without CC-885 only CRBN is enriched)
Text: Alternatively, the transition metal complex can be bonded to a derivatized amino acid or unnatural amino acid of the protein substrate or E3 ligase. Suitable click chemistry moieties of the transition metal complex and/or unnatural amino acid can be selected from the group consisting of DBCO, BCN, TCO, tetrazine, alkyne and azide. FIG. 3 illustrates validation of such a binding strategy with cereblon (CRBN). Transfected cells were employed to express CRBN with BCNK. Iridium complex comprising a tetrazine moiety was introduced to bind the iridium complex to CRBN. CRBN modulator CC-885 was added to bind to CRBN, and diazo-biotin was added as a protein labeling agent. The iridium complex was irradiated to form a reactive intermediate through energy transfer to the diazo-biotin as described further herein. The reactive intermediate binding to biomolecular species within a predetermined radius of the CRBN-Ir. FIG. 4 illustrates the results of the labeling study. […] In the absence of CC-885, only CRBN is enriched.

## Cc1ccc(NC(=O)NCc2ccc3c(c2)CN(C2CCC(=O)NC2=O)C3=O)cc1Cl (stereo not shown) [CC-885]
  proteins enriched in the labeling study: CRBN and GSPT1 are enriched
